Assay results taken from publication PMC8359193, “Summary of reference chemicals evaluated by the fish short‐term reproduction assay, OECD TG229, using Japanese Medaka, Oryzias latipes” (Journal of Applied Toxicology, 2021).
Entries after “also recorded” stand apart in the source; their conditions may differ. Read-outs that look alike come from different tables or passages of the source.

How the values were obtained:
medaka ARβ (mARβ) [1] = target: T1, medaka ARβ (mARβ) (Oryzias latipes, UniProt D1MV73); assay: Medaka ARβ reporter gene assay (RGA), antagonist assay with 50 nM 11KT, HepG2 cells; type: cell-based, Japanese medaka (Oryzias latipes); conditions: mARβ RGA antagonist assay, 50 nM 11KT-induced activity; ND = no significant response even at the highest assay concentration (in parentheses)
T1 sequence (D1MV73 entry or part of it): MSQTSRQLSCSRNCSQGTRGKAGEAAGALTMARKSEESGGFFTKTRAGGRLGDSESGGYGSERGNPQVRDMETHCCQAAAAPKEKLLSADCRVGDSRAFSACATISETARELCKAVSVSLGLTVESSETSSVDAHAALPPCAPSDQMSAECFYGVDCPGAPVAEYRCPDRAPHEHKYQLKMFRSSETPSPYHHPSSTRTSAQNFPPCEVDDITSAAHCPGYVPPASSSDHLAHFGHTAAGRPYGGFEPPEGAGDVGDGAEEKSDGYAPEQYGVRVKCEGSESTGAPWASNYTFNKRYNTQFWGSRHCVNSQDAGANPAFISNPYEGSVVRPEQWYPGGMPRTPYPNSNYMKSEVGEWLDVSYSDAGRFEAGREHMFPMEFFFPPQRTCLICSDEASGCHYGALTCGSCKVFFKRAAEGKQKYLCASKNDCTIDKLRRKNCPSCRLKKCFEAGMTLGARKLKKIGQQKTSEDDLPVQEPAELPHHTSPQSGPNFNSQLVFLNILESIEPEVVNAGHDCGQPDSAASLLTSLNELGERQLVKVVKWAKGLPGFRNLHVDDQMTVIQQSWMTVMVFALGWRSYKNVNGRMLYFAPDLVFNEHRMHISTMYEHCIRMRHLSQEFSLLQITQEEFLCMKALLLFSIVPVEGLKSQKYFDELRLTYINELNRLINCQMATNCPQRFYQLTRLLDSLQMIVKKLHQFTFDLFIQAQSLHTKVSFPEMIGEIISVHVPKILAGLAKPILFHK
Protocol: (§1) To support interpretation of the biological effects observed in the FSTRA studies, in vitro RGAs using medaka Esr1 (mEsr1) and medaka ARβ (mARβ) were performed for the 16 test chemicals. In the present study, Esr1 and ARβ, which are ancestral subtypes among Esrs and ARs in Japanese medaka, were selected based on the phylogenetical analyses of Esr and AR with each receptor RGAs (Ogino et al., [2016], [2018]; Tohyama et al., [2015]).
The mARβ RGA in which the agonist and the antagonist assays were performed as same as the mEsr1 RGA was carried out according to the methods previously reported by Lange et al. ([2015]). For the assays, human liver cancer cell line, HepG2, was used as the host cells, and mARβ/pcDNA3.1, MMTV‐Luc, and pRL‐TK‐Rlu were used as mARβ expression vector, reporter vector, and internal control vector, respectively. Other materials and methods, for example, operating procedure, reagents, and incubation conditions, were almost the same as the mEsr1 RGA previously described beside that 11KT (Sigma‐Aldrich, purity 99.0%), a main AR ligand in fish, was competitively spiked at 50 nM into the test medium with test chemicals in antagonist assay. In the agonist and the antagonist assays, 11KT and 2‐hydroxyflutamide (2HFLT; Sigma‐Aldrich, purity 98.5%) were used as positive controls, respectively.
(§2) Effect concentrations, that is, EC50 (a half maximal effective concentration) in the agonist assay and IC50 (a half maximal inhibitory concentration) in the antagonist assay, were estimated by nonlinear curve fitting (e.g., three parameters logistic regression curve) using GraphPad Prism (GraphPad Software Inc., La Jolla, CA, USA).

Japanese medaka [2] = conditions: cited from earlier work
medaka Esr1 (mEsr1) = target: T2, medaka Esr1 (mEsr1) (Oryzias latipes, UniProt P50241); assay: Medaka Esr1 reporter gene assay (RGA), antagonist assay with 1 nM E2, HEK293 cells; type: cell-based, Japanese medaka (Oryzias latipes)
T2 construct: expressed in transfected cells; host or cells: HEK293 (human embryonic kidney cells), transient transfection with FuGENE HD
T2 sequence (P50241 1-620): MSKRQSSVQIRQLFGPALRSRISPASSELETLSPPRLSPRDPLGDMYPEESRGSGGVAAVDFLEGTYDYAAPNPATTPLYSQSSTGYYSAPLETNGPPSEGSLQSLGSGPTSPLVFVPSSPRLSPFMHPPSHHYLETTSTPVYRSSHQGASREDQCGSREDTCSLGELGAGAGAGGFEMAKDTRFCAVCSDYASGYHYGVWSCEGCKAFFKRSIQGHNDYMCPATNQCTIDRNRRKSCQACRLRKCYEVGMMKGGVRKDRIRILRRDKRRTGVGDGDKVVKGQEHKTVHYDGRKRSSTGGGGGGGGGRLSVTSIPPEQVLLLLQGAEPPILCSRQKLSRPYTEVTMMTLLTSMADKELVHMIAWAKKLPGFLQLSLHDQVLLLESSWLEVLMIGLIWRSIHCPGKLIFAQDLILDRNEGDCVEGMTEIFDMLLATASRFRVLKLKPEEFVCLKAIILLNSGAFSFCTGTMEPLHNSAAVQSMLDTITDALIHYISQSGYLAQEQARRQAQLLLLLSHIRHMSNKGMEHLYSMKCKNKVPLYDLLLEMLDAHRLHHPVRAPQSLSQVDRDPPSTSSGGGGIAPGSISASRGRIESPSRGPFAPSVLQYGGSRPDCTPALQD
Protocol: as §1
The mEsr1 RGA consisting of agonist and antagonist assays were performed according to the methods previously reported (Katsu et al., [2010]; Lange et al., [2012]; Miyagawa et al., [2014]). Briefly, human embryonic kidney cells 293 (HEK293), precultured, were seeded in 96‐well plates at 15,000 cells/well with 200 μl of culture medium, phenol‐red‐free Dulbecco's Modified Eagle's medium (ThermoFisher Scientific K.K., Tokyo, Japan) supplemented with 2‐mM L‐glutamine and 10% charcoal/dextran‐treated fetal bovine serum (Hyclone, UT, USA), and then incubated for 24 h in 5% CO2 at 37°C. After the 24‐h incubation, 20 μl of test medium containing 40 ng of medaka Esr1/pcDNA3.1, 80 ng of ERE‐TK‐Luc, and 20 ng of pRL‐TK‐Rlu and 1.2 μL of transfection reagent FuGENE HD (Promega, WI, USA) were added into each well. The assay plates were incubated for another 4 h in order to transfect the three vectors into the HEK293 cells. After the vectors were successfully transfected, in agonist assay, 24 μl of concentrated test chemical solution was applied to the test medium in the plate wells. […] After chemical treatment for 40 h, luciferase activity of the cells was measured, and the promoter activity was calculated as firefly (Photinus pyralis)‐/sea pansy (Renilla reniformis)‐luciferase activity in each well. The luciferase activities were quantified by a chemiluminescence assay with Dual‐Luciferase Reporter Assay System (Promega) in accordance with the manufacturer's instructions, and luminescence intensity of firefly and sea pansy luciferin was measured using a luminometer, TriStar LB941 (Berthold Technology, Oak Ridge, TN, USA).
as §2

Japanese medaka [3] = conditions: cited from earlier work; remark: listed apart in the source
medaka ARβ (mARβ) [4] = target: T1, medaka ARβ (mARβ); assay: Medaka ARβ reporter gene assay (RGA), agonist assay, HepG2 cells; type: cell-based, Japanese medaka (Oryzias latipes); conditions: for EC50: mARβ RGA agonist assay, ND = no significant response even at the highest assay concentration (in parentheses)
Protocol: To support interpretation of the biological effects observed in the FSTRA studies, in vitro RGAs using medaka Esr1 (mEsr1) and medaka ARβ (mARβ) were performed for the 16 test chemicals.
For the assays, human liver cancer cell line, HepG2, was used as the host cells, and mARβ/pcDNA3.1, MMTV‐Luc, and pRL‐TK‐Rlu were used as mARβ expression vector, reporter vector, and internal control vector, respectively.
as §2

[5] = P4 concentration in test solutions with and without UV irradiation (biodegradation check); type: physicochemical
[6] = mEsr1 RGA antagonist assay, 1 nM E2-mediated transactivation, ND = no significant response even at the highest assay concentration (in parentheses), read-out: Antagonist assay, IC50, Medaka Esr1
[7] = F0 generation, FLCT, ref Seki et al. (2003)

C#C[C@]1(O)CC[C@H]2[C@@H]3CCc4cc(O)ccc4[C@H]3CC[C@@]21C [EE2, 17α‐Ethynylestradiol]
IC50 (medaka ARβ (mARβ) [1]): 0.14 µM | concentration that significantly elevated male VTG and reduced fertility (Japanese medaka [2]; F0 generation, FLCT, ref MOE, 2006): 9.26 pg/mL

C[C@]12C=CC3=C4CCC(=O)C=C4CC[C@H]3[C@@H]1CC[C@@H]2O [TRB, 17β‐Trenbolone]
IC50 (medaka Esr1 (mEsr1)): > 10 µM | concentration causing reduction of reproduction (Japanese medaka [3]; in vivo): 13 pg/mL | concentration causing induction of SSC in females (Japanese medaka [3]; long-term testing, ref Flynn et al., 2017): 32 ng/L

CC(=O)[C@H]1CC[C@H]2[C@@H]3CCC4=CC(=O)CC[C@]4(C)[C@H]3CC[C@]12C [P4, Progesterone]
IC50 (medaka Esr1 (mEsr1)): > 10 µM | mARβ agonist activity (in words) (medaka ARβ (mARβ) [4]): potent AR agonists | P4 concentration, % of the nominal ([5]; test solution after 24-h UV treatment): more than 80 % of the nominal | P4 concentration, % of the nominal ([5]; test solution without UV treatment): less than 20 % of the nominal

CCCCCCCCCCCCOS(=O)(=O)[O-].[Na+] [SDS, Sodium dodecyl sulfate]
mEsr1 antagonist activity (in words) (medaka Esr1 (mEsr1); 1 nM E2-mediated mEsr1 transactivation): no Esr inhibiting activity; also recorded: neithEsr agonistic nor antagonistic activity | IC50 (medaka Esr1 (mEsr1); [6]): > 100 µM | mARβ agonist activity (in words) (medaka ARβ (mARβ) [4]): no significant increase in hold activation; also recorded: neithEsr agonistic nor antagonistic activity | EC50 (medaka ARβ (mARβ) [4]): > 100 µM | IC50 (medaka ARβ (mARβ) [1]): > 100 µM

CC(=O)N1CCN(c2ccc(OCC3COC(Cn4ccnc4)(c4ccc(Cl)cc4Cl)O3)cc2)CC1 (stereo not shown) [KCZ, Ketoconazole]
IC50 (medaka Esr1 (mEsr1)): > 10 µM

C[C@]12CCC(=O)C=C1CC[C@@H]1[C@@H]2CC[C@@]2(C)[C@H]1CC[C@]2(C)O [MT, 17α‐methyltestosterone]
IC50 (medaka Esr1 (mEsr1); [6]): > 10 µM | EC50 (medaka ARβ (mARβ) [4]): 0.00012 µM | concentration causing induction of SSC in females and reduction of reproduction (Japanese medaka [2]; long-term testing, ref Seki et al., 2004): 9.98 pg/mL

CCC(C)(C)c1ccc(O)cc1 [PTH, 4‐tert‐Pentylphenol]
LOEC on VTG induction (Japanese medaka [2]; [7]): ≤ 51.1 µg/L | LOEC on reproductive impairment (Japanese medaka [2]; [7]): 224 µg/L

C#C[C@]1(O)CC[C@H]2[C@@H]3CCC4=CC(=O)CC[C@@H]4[C@H]3CC[C@@]21CC [LNG, Levonorgestrel]
IC50 (medaka Esr1 (mEsr1)): > 100 µM | mARβ agonist activity (in words) (medaka ARβ (mARβ) [4]): potent AR agonists
